Laboratory results from the Deep4Chem optical property database.
Values belong to the molecule of their own block, whether it stands above or below them.

Assay: solvent given as SMILES
[1] = in O=P(c1ccccc1)(c1ccccc1)c1ccccc1Oc1ccccc1P(=O)(c1ccccc1)c1ccccc1

SMILES: CCCCC(CC)CN1C(=O)c2cc(Oc3ccc(OC)cc3)c3c4c(Cl)cc5c6c(cc(Cl)c(c7c(Oc8ccc(OC)cc8)cc(c2c37)C1=O)c64)C(=O)N(c1c(C(C)C)cccc1C(C)C)C5=O (stereo unspecified)
emission maximum (in Cc1ccccc1): 614 nm

SMILES: CN1/C(=C/C=C(/C=C/C2=[N+](C)c3ccccc3C2(C)C)c2cc(F)cc(F)c2)C(C)(C)c2ccccc21
emission maximum (in CCO): 661 nm
emission maximum (in CO): 655 nm
emission maximum (in CS(C)=O): 663 nm
emission maximum (in O): 659 nm

SMILES: CCCCCCCCCCCCOc1ccc(C2=C3C(=O)N(CC(OCC)OCC)C(c4ccc(OCCCCCCCCCCCC)c(OCCCCCCCCCCCC)c4)=C3C(=O)N2CC(OCC)OCC)cc1OCCCCCCCCCCCC
emission maximum (in ClC(Cl)Cl): 541 nm

SMILES: F[B-]1(F)Oc2ccccc2-c2nc(-c3ccccc3)c3ccccc3[n+]21
emission maximum (in Cc1ccccc1): 529 nm

SMILES: Cc1cc(-c2nnc(-c3c(C(C)C)cc(C(C)C)cc3C(C)C)o2)ccc1-n1c2ccccc2c2ccccc21
emission maximum (in CCO): 440 nm
emission maximum (in Cc1ccccc1): 375 nm

SMILES: CC1(C)c2ccccc2N(c2ccc(-c3nnc(-c4ccccc4)o3)cc2)c2ccccc21
emission maximum (in Cc1ccccc1): 450 nm
emission maximum (in c1ccc(-n2c(-c3c(-n4c5ccccc5c5ccccc54)cccc3-n3c4ccccc4c4ccccc43)nc3ccccc32)cc1): 455 nm

SMILES: COc1ccc(N(c2ccc(OC)cc2)c2ccc(-c3ccc4c(c3)C(=O)c3ccccc3C4=O)cc2)cc1
emission maximum (in CCCCCC): 571 nm
emission maximum (in CCOCC): 720 nm
emission maximum (in Cc1ccccc1): 679 nm
emission maximum (in ClC(Cl)(Cl)Cl): 646 nm

SMILES: Cc1cc(-c2nc(-c3ccccc3)nc(-c3ccccc3)n2)ccc1N1c2ccccc2[Si](c2ccccc2)(c2ccccc2)c2ccccc21
emission maximum (in Cc1ccccc1): 459 nm
emission maximum [1]: 460 nm

SMILES: CN(C)c1ccc(-c2ccc(-c3cc(N4CCCCC4)c(C#N)c4c3-c3ccccc3CC4)s2)cc1
emission maximum (in C1CCCCC1): 491 nm
emission maximum (in C1CCOC1): 537 nm
emission maximum (in CN(C)C=O): 590 nm
emission maximum (in CS(C)=O): 570 nm
emission maximum (in Cc1ccccc1): 515 nm
emission maximum (in ClC(Cl)Cl): 540 nm

SMILES: F[B-]1(F)Oc2ccccc2-c2nc(-c3ccccc3)c3cc(Cl)ccc3[n+]21
emission maximum (in Cc1ccccc1): 542 nm

SMILES: COc1ccc(C2=C(c3ccc(C)cc3)C(c3ccccc3)=[N+]3C2=Nc2c(-c4ccc(OC)cc4)c(-c4ccc(C)cc4)c(-c4ccccc4)n2[B-]3(F)F)cc1
emission maximum (in Cc1ccccc1): 709 nm

SMILES: CCCCCCOc1ccc(/C=C/c2ccc(N(c3ccc(/C=C/c4ccc(OCCCCCC)cc4)cc3)c3ccc(-c4nc5ccccc5nc4-c4ccc(N(c5ccc(/C=C/c6ccc(OCCCCCC)cc6)cc5)c5ccc(/C=C/c6ccc(OCCCCCC)cc6)cc5)cc4)cc3)cc2)cc1
emission maximum (in C1CCOC1): 518 nm
emission maximum (in Cc1ccccc1): 505 nm

SMILES: O=c1c2cc(F)c(N3CCOCC3)cc2sc2cc(N3CCOCC3)c(F)cc12
emission maximum (in CCO): 481 nm

SMILES: O=P1(c2ccccc2)C(c2ccc(N(c3ccccc3)c3ccccc3)cc2)=Cc2cc3ccccc3cc21 (stereo unspecified)
emission maximum (in C1CCOC1): 511 nm
emission maximum (in CC#N): 561 nm
emission maximum (in CN(C)C=O): 551 nm
emission maximum (in Cc1ccccc1): 478 nm
emission maximum (in ClC(Cl)Cl): 516 nm
emission maximum (in ClCCl): 533 nm

SMILES: F[B-]1(F)n2c(-c3cccs3)cc(-c3cccs3)c2N=C2C(c3cccs3)=CC(c3cccs3)=[N+]21
emission maximum (in C1CCOC1): 763 nm
emission maximum (in CC#N): 757 nm
emission maximum (in CS(C)=O): 775 nm
emission maximum (in Cc1ccccc1): 765 nm
emission maximum (in ClCCl): 764 nm

SMILES: CN1c2ccccc2C(O)(c2ccccc2)c2cc([N+](=O)[O-])ccc21 (stereo unspecified)
emission maximum (in C1CCOC1): 501.3 nm
emission maximum (in CC#N): 557 nm
emission maximum (in CCO): 536.2 nm
emission maximum (in CO): 544.7 nm
emission maximum (in CS(C)=O): 566.8 nm
emission maximum (in Cc1ccccc1): 480.7 nm

SMILES: c1ccc(-c2nc(-c3ccccc3)nc(-c3ccc(-c4ccc5c(c4)[Si](c4ccccc4)(c4ccccc4)c4cc(-c6ccc(-c7nc(-c8ccccc8)nc(-c8ccccc8)n7)cc6)ccc4N5c4ccccc4)cc3)n2)cc1
emission maximum (in c1cc(-c2cccc(-n3c4ccccc4c4ccccc43)c2)cc(-n2c3ccccc3c3ccccc32)c1): 459 nm

SMILES: Cc1ccc2c(CC(=O)NN)coc2c1
emission maximum (in C1CCOC1): 400 nm
emission maximum (in CC#N): 397 nm
emission maximum (in CC(C)=O): 402 nm
emission maximum (in CCCCO): 398 nm
emission maximum (in CCCO): 394 nm
emission maximum (in CCO): 397 nm
emission maximum (in CCOC(C)=O): 390 nm
emission maximum (in CN(C)C=O): 412 nm
emission maximum (in CO): 391 nm
emission maximum (in ClCCl): 399 nm

SMILES: F[B-]1(F)n2c(/C=C/c3ccc(C(=C(c4ccccc4)c4ccccc4)c4ccccc4)cc3)ccc2C(c2ccccc2)=C2C=CC(/C=C/c3ccc(C(=C(c4ccccc4)c4ccccc4)c4ccccc4)cc3)=[N+]21
emission maximum (in C1CCOC1): 690 nm

SMILES: Cc1cc(-n2c3ccccc3c3cc4c(cc32)C2c3ccccc3C4c3ccccc32)ccc1-c1nc(-c2ccccc2)nc(-c2ccccc2)n1
emission maximum (in Cc1ccccc1): 429 nm
emission maximum [1]: 444 nm

SMILES: O=CC1=C(c2ccc(-c3cccs3)s2)CCC1
emission maximum (in C1CCOC1): 479 nm
emission maximum (in CC#N): 493 nm
emission maximum (in CCCCCC): 456 nm
emission maximum (in CCO): 514 nm
emission maximum (in OCCOCCO): 527 nm
emission maximum (in c1ccncc1): 494 nm

SMILES: C/C=C/c1cc(OC)cc(OC)c1
emission maximum (in CC#N): 343 nm
emission maximum (in CCCCCC): 338 nm

Now from value to molecule:

emission maximum (in CC#N): 498 nm
emission maximum (in CO): 521 nm
SMILES: O=C1c2ccccc2-c2c(-c3ccccc3)c(-c3ccccc3)c(-c3ccccc3)c3cccc1c23

emission maximum (in ClCCl): 444 nm
SMILES: O=C1c2ccccc2C2=Nc3ccc4ccccc4[n+]3[B-](F)(F)N12

emission maximum (in ClCCl): 456 nm
SMILES: F[B-]12OC(c3ccccc3)=Nc3cccc([n+]31)N=C(c1ccccc1)O2

emission maximum (in CN(C)C=O): 424 nm
SMILES: CCN(CC)c1ccc(-c2nc(Oc3ccc(-c4nc5ccc(Cl)cc5o4)cc3)nc(Oc3ccc(-c4nc5ccc(Cl)cc5o4)cc3)n2)cc1

emission maximum (in CCO): 503 nm
emission maximum (in ClCCl): 500 nm
SMILES: N#Cc1cnc(-c2c3ccccc3c(-c3ncc(C#N)cn3)c3ccccc23)nc1

emission maximum (in ClC(Cl)Cl): 538 nm
SMILES: CCOC(CN1C(=O)C2=C(c3ccc(OC)c(OC)c3)N(CC(OCC)OCC)C(=O)C2=C1c1ccc(OC)c(OC)c1)OCC

emission maximum (in ClC(Cl)Cl): 730 nm
SMILES: COc1ccc2c(c1)SCC1=C(c3ccccc3)C3=Nc4c(-c5ccccc5)c5c(n4[B-](F)(F)[N+]3=C12)-c1ccc(OC)cc1SC5

emission maximum (in ClCCl): 596 nm
SMILES: O=C1c2ccccc2C2=Nc3cccc4cccc(c34)N12

emission maximum (in C1CCCCC1): 390 nm
SMILES: C[Si](C)(C)C#Cc1ccc(C#Cc2cnc(C#Cc3ccccc3)nc2)cc1

emission maximum (in CO): 581 nm
SMILES: COC(=O)COc1ccc(/C=C/C2=[N+]3C(=C(c4ccc(N5CCCCC5)cc4)c4c(C)cc(C)n4[B-]3(F)F)C(C)=C2)cc1

emission maximum (in CS(C)=O): 431 nm
SMILES: CSc1ccc(-c2nc3sc4ccccc4c3s2)cc1

emission maximum (in ClC(Cl)Cl): 496 nm
SMILES: COc1ccc2c(c1)c(C#N)cc1c(OC)c(OC)c3cc(C#N)c4cc(OC)ccc4c3c12

emission maximum (in ClCCl): 430 nm
SMILES: CCOC(=O)c1ccc(C2CC(c3cccc4ccccc34)=NN2c2ccc(C#N)cc2)cc1 (stereo unspecified)

emission maximum (in CCO): 541 nm
SMILES: CCOC(=O)c1cc(C(=O)OCC)c2ccc(N(C)C)cc2n1

emission maximum (in ClCCl): 406 nm
SMILES: CCOC(=O)c1c(-c2c(Cl)c3ccccc3oc2=O)nn(-c2ccc(Br)cc2)c1C(=O)OCC

emission maximum (in ClCCl): 639 nm
SMILES: CCN1c2ccc(C3=CC(c4ccccc4)=[O+][B-](F)(F)O3)cc2Sc2cc(C3=CC(c4ccccc4)=[O+][B-](F)(F)O3)ccc21

emission maximum (in ClC(Cl)Cl): 478 nm
SMILES: CCN(CC)c1ccc2cc(-c3cn4cc(OC)ccc4n3)c(=O)oc2c1
